Test results from patent US20250179059A1 (The Regents of the University of California, priority 2021, published 2025).
Read-outs that look alike come from different tables or passages of the source.

Key:
[1] = target: T1, human BRD4 bromodomain II (Homo sapiens, UniProt O60885); assay: Bromodomain binding assay (AlphaScreen), BRD4 BDII
T1 construct: human BRD4 bromodomain II [based on Genbank NM_058243, residues 349-460]; host or cells: E. coli
How it was run: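 Inhibition of acetyl-H4 peptide binding to human BRD4 bromodomains is measured by bead-based proximity (AlphaScreen) in pH 7.5 HEPES buffer containing 0.05% CHAPS and 0.1% BSA. Ten compound concentrations in 3-fold steps give competitive binding IC50s.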

[2] = tested on: human SKM-1 acute myeloid leukemia cells; assay: SKM-1 antiproliferation cell-based assay (ATPlite); settings: Homo sapiens
How it was run: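 Log-phase cells in RPMI 1640/15% FBS were seeded at 34722 cells/mL and exposed for 4 days to nine-concentration DMSO serial dilutions in triplicate. Viability was read as ATP luminescence (ATPlite 1step), and IC50 values came from variable-slope non-linear regression.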

[3] = AlphaScreen assay, Table C2, read-out: BRD4 BDII IC50
[4] = SKM-1, 96 h, SKM-1 antiproliferation assay, 4 days, Table C2
[5] = BRD4 BDII AlphaScreen assay, read-out: BRD4 BD2 IC50
[6] = SKM-1, SKM-1 antiproliferation assay

Row | SMILES | IC50 [1, 3] [nM] | GI50 [2, 4] [nM] | IC50 [1, 5] [nM] | GI50 [2, 6] [nM]
1 | Cn1ccn(-c2ccc(-c3cc(F)cc(-c4cc(N5CC[C@H](N)C5)c5nn[nH]c5c4)c3O)cc2Cl)c1=O [Example 537, (S)-1-(3′-(4-(3-aminopyrrolidin-1-yl)-1H-benzo[d][1,2,3]triazol-6-yl)-3-chloro-5′-fluoro-2′-hydroxy-[1,1′-biphenyl]-4-yl)-3-methyl-1H-imidazol-2(3H)-one] | 1 to 10 | 30 to 300 |  | 
2 | Cn1ccn(-c2ccc(-c3cc(F)cc(-c4ccc5ccc(C(C)(C)O)cc5c4)c3O)cc2Cl)c1=O [Example 801, 1-(3-chloro-5′-fluoro-2′-hydroxy-3′-(7-(2-hydroxypropan-2-yl)naphthalen-2-yl)-[1,1′-biphenyl]-4-yl)-3-methyl-1H-imidazol-2(3H)-one] | 1 to 10 | 30 to 300 |  | 
3 | Cc1ncc(-c2cc(F)cc(-c3ccc(-n4ccn(C)c4=O)c(Cl)c3)c2O)cc1N1CC2(CC2)[C@](C)(O)C1 [Example 873] |  |  | 0.01 to 1 | 0.3 to 30
4 | Cc1cc(-c2ccc(-n3ccn(C)c3=O)c(Cl)c2)c(O)c(-c2cnc(N)c(N3CCC4(CCN4C(C)C)C3)c2)n1 (centres unmarked) [Example 975, 1-(4-(6′-amino-3-hydroxy-5′-(1-isopropyl-1,6-diazaspiro[3.4]octan-6-yl)-6-methyl-[2,3′-bipyridin]-4-yl)-2-chlorophenyl)-3-methyl-1H-imidazol-2(3H)-one] |  |  | 1 to 10 | 0.3 to 30
5 | Cn1ccn(-c2ccc(-c3cc(F)cc(-c4cccc(C#CC(C)(C)N)c4)c3O)cc2Cl)c1=O [Example 771, 1-(3″-(3-amino-3-methylbut-1-yn-1-yl)-3-chloro-5′-fluoro-2′-hydroxy-[1,1′:3′,1″-terphenyl]-4-yl)-3-methyl-1H-imidazol-2(3H)-one] | 1 to 10 | 30 to 300 |  | 
6 | CC(=O)NC1(c2cccc(-c3cc(F)cc(-c4ccc(-n5ccn(C)c5=O)c(Cl)c4)c3O)c2)CC1 [Example 764, N-(1-(3″-chloro-5′-fluoro-2′-hydroxy-4″-(3-methyl-2-oxo-2,3-dihydro-1H-imidazol-1-yl)-[1,1′:3′,1″-terphenyl]-3-yl)cyclopropyl)acetamide] | 1 to 10 | 300 to 3000 |  | 
7 | CNc1ncc(-c2nc(C)cc(-c3ccc(-n4ccn(C)c4=O)c(Cl)c3)c2O)cc1N1CCC2(CCCN2C(C)C)C1 (centres unmarked) [Example 985, 1-(2-chloro-4-(3-hydroxy-5′-(1-isopropyl-1,7-diazaspiro[4.4]nonan-7-yl)-6-methyl-6′-(methylamino)-[2,3′-bipyridin]-4-yl)phenyl)-3-methyl-1H-imidazol-2(3H)-one] |  |  | 1 to 10 | 0.3 to 30
8 | CC(=O)Nc1cnc(-c2cc(F)cc(-c3cccc(N4CCN(C(C)(C)C)CC4)c3)c2O)cn1 [Example 887] |  |  | > 100 | 300 to 3000
9 | CC(=O)Nc1cnc(-c2cc(F)cc(-c3cccc(N4CCN(C(C)(C)C)CC4)c3)c2O)nc1 [Example 894] |  |  | > 100 | 300 to 3000
10 | Cn1ccn(-c2ccc(-c3cc(F)cc(-c4cc(N5CC[C@H](N)C5)c5nccnc5c4)c3O)cc2Cl)c1=O [Example 548, (S)-1-(3′-(8-(3-aminopyrrolidin-1-yl)quinoxalin-6-yl)-3-chloro-5′-fluoro-2′-hydroxy-[1,1′-biphenyl]-4-yl)-3-methyl-1H-imidazol-2(3H)-one] | 1 to 10 | 0.3 to 30 |  | 
11 | CC(C)[C@@H]1CN(c2cc(-c3cc(F)cc(-c4ccc(-n5ccn(C)c5=O)c(Cl)c4)c3O)cc3[nH]ncc23)CCN1 [Example 597, (R)-1-(3-chloro-5′-fluoro-2′-hydroxy-3′-(4-(3-isopropylpiperazin-1-yl)-1H-indazol-6-yl)-[1,1′-biphenyl]-4-yl)-3-methyl-1H-imidazol-2(3H)-one] | 1 to 10 | 0.3 to 30 |  | 
12 | Cc1cc(-c2ccc(-n3ccn(C)c3=O)c(Cl)c2)c(O)c(-c2cc(N3CCN(C(C)(C)C)CC3)c(=O)n(C)c2)n1 [Example 1011, 5′-(4-(tert-butyl)piperazin-1-yl)-4-(3-chloro-4-(3-methyl-2-oxo-2,3-dihydro-1H-imidazol-1-yl)phenyl)-3-hydroxy-1′,6-dimethyl-[2,3′-bipyridin]-6′(1′H)-one] |  |  | 10 to 100 | 0.3 to 30
13 | COc1ncc(-c2cc(F)cc(-c3ccc(-n4ccn(C)c4=O)c(Cl)c3)c2O)cc1N1CC(F)(F)[C@](C)(O)C1 [Example 900] |  |  | 0.01 to 1 | 30 to 300

Other lines, results leading:

Row | IC50 [1, 3] [nM] | GI50 [2, 4] [nM] | IC50 [1, 5] [nM] | GI50 [2, 6] [nM] | SMILES
14 | > 100 | ≥ 3000 |  |  | COC(=O)c1ncc(-c2cc(F)cc(-c3ccc(N4CCN(C)C4=O)c(Cl)c3)c2O)cc1N1CCNCC1 [Example 376, Methyl 5-(3′-chloro-5-fluoro-2-hydroxy-4′-(3-methyl-2-oxoimidazolidin-1-yl)-[1,1′-biphenyl]-3-yl)-3-(piperazin-1-yl)picolinate]
15 | 1 to 10 | 30 to 300 |  |  | Cc1ccc(-c2cc(F)cc(-c3ccc(-n4ccn(C)c4=O)c(Cl)c3)c2O)cc1N1CC[C@@](C)(O)C1 [Example 808, (R)-1-(3-chloro-5′-fluoro-2′-hydroxy-3″-(3-hydroxy-3-methylpyrrolidin-1-yl)-4″-methyl-[1,1′:3′,1″-terphenyl]-4-yl)-3-methyl-1H-imidazol-2(3H)-one]
16 | 0.01 to 1 | 0.3 to 30 |  |  | C[C@@H]1CN(c2cc(-c3cc(F)cc(-c4ccc(-n5ccn(C)c5=O)c(Cl)c4)c3O)cnn2)CCN1 [Example 650, (R)-1-(3-chloro-5′-fluoro-2′-hydroxy-3′-(6-(3-methylpiperazin-1-yl)pyridazin-4-yl)-[1,1′-biphenyl]-4-yl)-3-methyl-1H-imidazol-2(3H)-one]
17 | 1 to 10 | 30 to 300 |  |  | CN1CCN(c2ccc(-c3cccc(-c4ccnc(N5CC6(CNC6)C5)c4)c3O)cc2Cl)C1=O [Example 323, 1-(3′-(2-(2,6-diazaspiro[3.3]heptan-2-yl)pyridin-4-yl)-3-chloro-2′-hydroxy-[1,1′-biphenyl]-4-yl)-3-methylimidazolidin-2-one]
18 | 1 to 10 | 300 to 3000 |  |  | CC(=O)Nc1ccc(-c2cc(F)cc(-c3ccnc(N4CCNCC4)c3)c2O)cc1Cl [Example 222, N-(3-chloro-5′-fluoro-2′-hydroxy-3′-(2-(piperazin-1-yl)pyridin-4-yl)-[1,1′-biphenyl]-4-yl)acetamide]
19 | 1 to 10 | 0.3 to 30 |  |  | CC(C)N1CCN(c2cc(-c3cc(F)cc(-c4ccc(-n5ccn(C)c5=O)c(Cl)c4)c3O)cc3[nH]ncc23)CC1 [Example 587, 1-(3-chloro-5′-fluoro-2′-hydroxy-3′-(4-(4-isopropylpiperazin-1-yl)-1H-indazol-6-yl)-[1,1′-biphenyl]-4-yl)-3-methyl-1H-imidazol-2(3H)-one]
20 | 1 to 10 | 30 to 300 |  |  | CC(=O)Nc1ncc(-c2cc(F)cc(-c3ccc(N4CCN(C)C4=O)c(Cl)c3)c2O)cc1N1CCNCC1 [Example 389, N-(5-(3′-chloro-5-fluoro-2-hydroxy-4′-(3-methyl-2-oxoimidazolidin-1-yl)-[1,1′-biphenyl]-3-yl)-3-(piperazin-1-yl)pyridin-2-yl)acetamide]
21 |  |  | > 100 | 30 to 300 | Cc1nc(-c2cccc(N3CCN(C(C)(C)C)CC3)c2)c(O)c(-c2ccc(-n3ccn(C)c3=O)c(Cl)c2)n1 [Example 920, 1-(4-{6-[3-(4-tert-Butyl-piperazin-1-yl)-phenyl]-5-hydroxy-2-methyl-pyrimidin-4-yl}-2-chloro-phenyl)-3-methyl-1,3-dihydro-imidazol-2-one]
22 | > 100 | 300 to 3000 |  |  | CCN1CCN(c2ccc(-c3cccc(-c4ccnc(N5CCNCC5)c4)c3O)cc2Cl)C1=O [Example 346, 1-(3-chloro-2′-hydroxy-3′-(2-(piperazin-1-yl)pyridin-4-yl)-[1,1′-biphenyl]-4-yl)-3-ethylimidazolidin-2-one]
23 | 0.01 to 1 | 30 to 300 |  |  | [2H]C([2H])([2H])n1ccn(-c2ccc(-c3cc(F)cc(-c4ccnc(N5CCNCC5=O)c4)c3O)cc2Cl)c1=O [Example 464, 1-(4-(3′-chloro-5-fluoro-2-hydroxy-4′-(3-deuteromethyl-2-oxo-2,3-dihydro-1H-imidazol-1-yl)-[1,1′-biphenyl]-3-yl)pyridin-2-yl)piperazin-2-one]
24 |  |  | 10 to 100 | 300 to 3000 | CNC(=O)Nc1ccc(-c2cc(F)cc(-c3cccc(N4CCN(C(C)(C)C)CC4)c3)c2O)cc1Cl [Example 921, 1-(3″-(4-(tert-Butyl)piperazin-1-yl)-3-chloro-5′-fluoro-2′-hydroxy-[1,1′:3′,1″-terphenyl]-4-yl)-3-methylurea]
25 |  |  | 1 to 10 | 30 to 300 | Cn1ccn(-c2ccc(-c3cc(F)cc(-c4cccc(N5CCN(C6CCOC6)CC5)c4)c3O)cc2Cl)c1=O (centres unmarked) [Example 867]
26 | 1 to 10 | 0.3 to 30 |  |  | CC(=O)Nc1cc(-c2cc(F)cc(-c3ccc(N4CCN(C)C4=O)c(Cl)c3)c2O)cc(N2CCNCC2)n1 [Example 433, N-(4-(3′-chloro-5-fluoro-2-hydroxy-4′-(3-methyl-2-oxoimidazolidin-1-yl)-[1,1′-biphenyl]-3-yl)-6-(piperazin-1-yl)pyridin-2-yl)acetamide]
27 | > 100 | ≥ 3000 |  |  | O=C1CCC(=O)N1c1ccc(-c2cccc(-c3ccnc(N4CCNCC4)c3)c2O)cc1F [Example 303, 1-(3-fluoro-2′-hydroxy-3′-(2-(piperazin-1-yl)pyridin-4-yl)-[1,1′-biphenyl]-4-yl)pyrrolidine-2,5-dione]
28 | > 100 | 300 to 3000 |  |  | CN1CCN(c2ccc(-c3cc(C(C)(C)C)cc(-c4ccnc(N5CCNCC5)c4)c3O)cc2Cl)C1=O [Example 310, 1-(5′-(tert-butyl)-3-chloro-2′-hydroxy-3′-(2-(piperazin-1-yl)pyridin-4-yl)-[1,1′-biphenyl]-4-yl)-3-methylimidazolidin-2-one]
